Series [1] in a line: repeated oral administration toxicity test, SMP-114 concentration in serum (HPLC-fluorescence). Format: in vivo. Conditions: both sexes, Crj:CD(SD), rat, rats. On the procedure:
Next, a repeated oral administration toxicity test on Crj:CD(SD) rats aged 5 weeks was carried out for each of one month and six months (once-a-day oral administration in both cases). SMP-114 was repeatedly administered to male and female SD strain rats (10 rats per group) for one month in a dose of each of 10, 30, 100 and 300 mg/kg, and its subacute toxicity and the recovery by one month of the suspension of the administration were investigated. In addition, the time-course of SMP-114 concentration in serum after each of one run of the administration and 30 days of the repeated administration was investigated. […] In addition, the time-course of SMP-114 concentration in serum after each of one run of the administration, 3 months of the repeated administration and 6 months of the repeated administration was investigated. The SMP-114 concentration in serum was measured by an HPLC-fluorescence method (fluorescence wavelength: 319 nm) after extracting SMP-114 from each sample with diethyl ether under slight acidic conditions (pH 4.7).

Series [2] in a line: tolerance test by a single administration, healthy person Japanese. Format: in vivo, human. To be noted: single dose 10, 20, 40, 80 or 120 mg, tablets, hungry, healthy male Japanese. On the procedure: • (1) A single-administration test on healthy male Japanese (20 to 40 years old, body weight: less than 80 kg and not less than 50 kg, degree of corpulence: ±20% or less) was carried out. Using the SMP-114 tablets and a placebo as control, 10, 20, 40, 80 or 120 mg of SMP-114 was administered by a single-blind method when the subjects were hungry (at each dose, 6 cases of SMP-114 administration and 2 cases of placebo administration: 40 subjects in total). As to items of evaluation related to safety, observations about the following were carried out: vital signs (body temperature, blood pressure-pulse rate and respiration rate), 12-induction electrocardiogram, clinical examinations [hematological examination, blood biochemical examination, endocrinological examinations (FT4, FT3 and TSH), serological examination (haptoglobin) and urinalysis], and harmful matters. As items of evaluation related to pharmacokinetics, the concentrations of SMP-114 and its metabolites in serum and urine were measured. […]

In series [3] the test system is mice with collagen arthritis. Conditions: cited from earlier work.
The nature of series [4]: tolerance test by a single administration, healthy male Caucasians. Format: in vivo, human. To be noted: single oral dose 10, 20, 40, 60, 80, 100, 120 or 140 mg, suspension, fasted.
Series [5] is described as follows: repeated administration test on healthy male Japanese (7 days). Format: in vivo, human. Here is the method: AUC0-24 level of the agent in its repeated administration to humans A repeated administration test on healthy male Japanese of 20 to 40 years old was carried out. Using the SMP-114 tablets and placebo tablets, 80 mg of each of the placebo and SMP-114 was orally administered once a day for 7 days by a placebo controlled double-blind method (8 cases of SMP-114 administration and 2 cases of placebo administration: 10 subjects in total).

The nature of series [6]: repeated administration test on healthy male Caucasians (7 days), serum concentration by LC-MS/MS. Format: in vivo, human. Conditions: for AUC(0-t): serum, oral, read-out: AUC0-24 at the steady state. On the procedure:
A repeated administration test on healthy male Caucasians of 18 to 50 years old was carried out. Using the SMP-114 tablets and placebo tablets, 80 mg or 120 mg of each of the placebo and SMP-114 was orally administered once a day for 7 days by a placebo controlled double-blind method (at each dose, 8 cases of SMP-114 administration and 2 cases of placebo administration: 20 subjects in total).
The SMP-114 concentration in serum was measured by a LC-MS/MS method by employing the following pretreatment and measuring conditions.
1) To each of the standard sample solutions for calibration curve, the QC sample and the samples to be analyzed was added 10 mL of an internal standard solution (d5-SMP-114 5 ng/mL), and stirred.
2) To the resulting mixture were added 1 mL of 100 mmol/L ammonium acetate buffer (pH 4.0) and then 6 mL of diethyl ether, and stirred for 10 minutes, followed by centrifugation at 4° C. and 3000 rpm for 10 minutes.
3) The supernatant was transferred to a glass tube and concentrated to dryness in a nitrogen stream (40° C.) in an aluminum-blocked thermostatic chamber.
4) To the residue was added 120 μL of 50 vol % acetonitrile and the residue was redissolved with an ultrasonic bath and a Vortex mixer.
5) The solution obtained by the redissolution was transferred to a filter and centrifuged at 5000 rpm for 3 minutes.
6) The filtrate was transferred to an auto-sampler vial to obtain a sample solution for measurement.
LC-MS/MS measurement was carried out under the following conditions. However, parameters (e.g. gas volume and collision voltage) whose optimum values were variable depending on the condition of a mass spectrometer were properly changed.
Mobile phase: eluent A; 0.3 vol % acetic acid eluent B; acetonitrile
• Flow rate: 0.2 ml/min • Analytical column: Puresil C18, 2.1 mm i.d.×150 mm, […] (Waters) • Auto-sampler tray: 4° C. • Column temperature: 35° C. • Valve switching: 0-1.5 min. discard, 1.5-9.0 min. ion source for SMP-114, 9.0-15.0 min. discard • Injecting volume: […] MS/MS Conditions • Ionization method: electro-ion spray method, positive mode • MS/MS mode: SRM (selected reaction monitoring) • Monitor ion: SMP-114 Q1 m/z 395.1→Q3 m/z 199.0 (±25 eV) d5-SMP-114 Q1 m/z 400.2→Q3 m/z 204.0 (−25 eV) • Total scan time: 0.6 second (SMP-114 and d5-SMP-114) • Ionization voltage: 4.5 kV for SMP-114 • Sheath gas: 70 psi (nitrogen gas) • Auxiliary gas: 30 units (nitrogen gas) • Capillary tube temperature: 230° C. • Collision gas: 2.1-2.2 mT (argon) • Multiplier: 1300 V

The structures appear in SMILES notation.

As for `C[C@@H](c1ccc(-c2ccccc2)c(F)c1)c1cc(/N=C(/N)N2CCOCC2)on1` [SMP-114, 3-[(1S)-1-(2-fluorobiphenyl-4-yl)ethyl]-5-{[amino(morpholin-4-yl)methylene]amino}isoxazole], the AUC(0-t) is 2710 to 3580 ng·h/mL in series [1] (oral, calculated for a dose of 5 mg/kg, read-out: AUC0-24 for the exhibition of efficacy); 3250 ng·h/mL in series [1] (6 mg/kg oral once a day for 6 months, read-out: AUC0-24); 7160 ng·h/mL in series [1] (10 mg/kg oral once a day for one month, read-out: AUC0-24); 15300 ng·h/mL in series [5] (human, serum, 80 mg oral once a day for 7 days, tablets, read-out: AUC0-24 at a steady state); 10600 ng·h/mL in series [6] (human, 80 mg treated group, once a day for 7 days, healthy male Caucasians); 16700 ng·h/mL in series [6] (human, 120 mg treated group, once a day for 7 days, healthy male Caucasians). Moreover, the “side effects undesirable with respect to tolerance” value in series [2] is listed as “observed at none of the doses”; in series [4] it was “observed at none of the doses”; in series [6] (80 mg or 120 mg oral once a day for 7 days, healthy male Caucasians), “observed at neither of the doses”. Also, the antiarthritic effect result in series [3] (mice with collagen arthritis) was “antiarthritic effect”. The “minimum effective amount for antiarthritic effect” value in series [3] (once-a-day oral administration) is given as 5 mg/kg. Also, the accumulative property entry in series [5] (80 mg once a day for 7 days) is reported as “no accumulative property”; in series [6] (once a day for 7 days, healthy male Caucasians), “no accumulative property”. Also, the tolerance result is “satisfactory” in series [5] (80 mg oral once a day for 7 days) and “satisfactory” in series [6] (repeated once-a-day dose of about 120 mg or less, human).

Values taken from US20070082903A1, “Remedy for rheumatoid arthritis” (priority 2003, published 2007).
